Source: patent publication US20260191863A1, “PYRROLOPYRIMIDINE COMPOSITIONS FOR TREATMENT OF ITK MEDIATED CONDITIONS” (ACLARIS THERAPEUTICS, INC., priority 2022, published 2026)
Several values for one entry are separate records, joined by “and”; a condition that tells them apart may be missing. Equal entries are not always repeated. Where two headings read alike, the source gives them in different places.

Assays:
[1] = system: colitis (mouse T cell transfer model); test: Mouse T cell transfer model of inflammatory bowel disease; format: in vivo
Text: The study evaluated Compound I dose dependent ability to inhibit inflammation in the mouse T cell transfer model of inflammatory bowel disease.

ITK (IL2 mRNA) = test: SAD ex vivo PD: αCD3/αCD28 stimulated IL2 mRNA production; format: in vivo; conditions: Homo sapiens
Text: (§1) Secondary Endpoints—Compound I plasma concentrations. Mean change from baseline in ex vivo stimulated pSTAT5 and pSTAT1 (signal transducer and activator of transcription); and in ex vivo stimulated IFNγ mRNA (interferon gamma messenger ribonucleic acid).
(§2) Summary of SAD data: FIGS. 4-8 and 9-13 show the SAD dose response, SAD exposure response, and SAD calculated response at Cmax by dose respectively for ITK (IL2 mRNA), ITK (IFNγ mRNA), JAK3 (pSTAT5, lymph), JAK3 (pSTAT5, CD3′ T), and ITK & JAK (IFNγ protein). Clinical and pre-clinical IC50 data for ITK (IL2 mRNA), ITK (IFNγ mRNA), JAK3 (pSTAT5, lymph), JAK3 (pSTAT5, CD3^+ T), and ITK & JAK (IFNγ protein) from the SAD study is shown in table 4.

JAK3 (pSTAT5, CD3+ T) = test: SAD ex vivo PD: IL2 stimulated pSTAT5 in CD3+ T cells; conditions: Homo sapiens, T-cell; SAD study; read-out: Clinical EC50
Text: as §1, §2

JAK1/2 = test: Cell IC50 JAK1/2 hPBMC IFNγ/pSTAT1; format: cell-based, human
[2] = Phase 1 MAD study: safety and tolerability; format: in vivo, human; conditions: for AE of Special Interest (events) / AEs (events) / ≥Grade 2 (events): 14 days
Text: Primary Endpoints—Number and percent of adverse events (AEs) and serious adverse events (SAEs); mean change from baseline in laboratory values, vital signs, and electrocardiograms (ECGs).
Overall Design—This was a randomized, Investigator and participant-blind. Sponsor-unblinded, placebo-controlled study designed to evaluate the safety, tolerability, PK, and PD of Compound I in healthy participants. The study consisted of multiple cohorts assessing ascending doses of Compound I.
Approximately 60 participants were enrolled into 5 cohorts. At each dose level/cohort, a total of 10 participants were randomized to receive 2 weeks of oral doses of Compound I (n=8) or placebo (n=2). In Cohort 3, 20 participants were randomized to receive multiple oral doses of Compound I QD (n=8), Compound I TID (n=8), placebo QD (n=2), or placebo TID (n=2).
The study started with a planned dose of 5 mg twice daily (BID). Escalation to the next higher cohort was dependent on safety and PK data from all participants in the previous cohorts and was based on data from at least 6 participants up to at least 48 hours after the last dose. In no instance did the dose escalation steps exceed 3-fold the prior dose level.

JAK3 (pSTAT5, lymph) = test: SAD ex vivo PD: IL2 stimulated pSTAT5 in lymphocytes; conditions: Homo sapiens, Lymphocyte; SAD study; read-out: Clinical EC50
Text: as §1, §2

ITK (IFNγ mRNA) = test: SAD ex vivo PD: αCD3/αCD28 stimulated IFNγ mRNA production; format: in vivo; conditions: Homo sapiens; SAD study; read-out: Clinical EC50
Text: as §1, §2

[3] = 13 week toxicology and toxicokinetic study in rats; format: in vivo, rat
Text: Purpose: Evaluation of toxicity and toxicokinetic (TK) for Compound I, following daily dosing for 13 weeks.

experimental colitis = test: Mouse colitis model vs ritlecitinib and tofacitinib, histological damage; format: in vivo; conditions: proximal/distal colon and ileum
Description: […] experimental colitis data-Histological damage was evaluated for the proximal/distal colon and ileum. Representative data shown here is from the distal colon-across all three regions of GI tissues analyzed.

ITK & JAK (IFNγ protein) = test: SAD ex vivo PD: αCD3/IL15 stimulated IFNγ protein production; format: in vivo, human; conditions: for EC50: Homo sapiens; for Inhibition of dual ITK and JAK3-stimulated IFNγ protein production: SAD higher dose cohorts
Text: as §2

ITK and JAK3 = test: SAD exploratory PD, all biomarker readouts; format: in vivo, human
Description: as §1
Results: Sixty-three subjects completed the SAD study. […] Peak concentrations were reached within 2 hours after dosing.

[4] = system: IL15 stimulated IFNγ protein; test: Pre-clinical human whole blood IL-15/IFNγ (5 hr); format: cell-based
[5] = system: IL15 stimulated IFNγ protein; test: MAD ex vivo PD: IL15 stimulated IFNγ protein; format: in vivo; conditions: Homo sapiens
Text: Exploratory Endpoints—Mean change from baseline in cellular, extracellular (secreted), and/or message markers of inflammation.
EC50 and IC50 data for αCD3 & αCD28 stimulated IL2mRNA, IL15 stimulated IFNγ protein, and αCD3 & IL15 stimulated IFNγ protein is shown in table 9.

[6] = SAD study, read-out: Clinical EC50

With `C=CC(=O)N1C[C@H](Nc2ncnc3[nH]cc([C@H]4CC4(F)F)c23)CC[C@@H]1C` [Compound I, 1-((2S,5R)-5-((5-((R)-2,2-difluorocyclopropyl)-7H-pyrrolo[2,3-d]pyrimidin-4-yl)amino)-2-methylpiperidin-1-yl)prop-2-en-1-one] as the compound, how does the Colitis [1] read?
The Colitis was “inhibited colitis”.

And the “Effect compared with anti-IL12 (P40)” value [1]?
Its value is “The effect was greater than anti-IL12 (P40)”.

And the “Inflammation in proximal and distal colon, and ileum” value [1]?
The value was “dose dependently decreased inflammation”.

And the EC50 (ITK (IL2 mRNA); [6])?
Its EC50 is 15.2 nM.

And the EC50 (ITK (IL2 mRNA); read-out: SAD EC50)?
The EC50 was 0.0055 µg/mL and 15.2 nM.

What about the EC50 (JAK3 (pSTAT5, CD3+ T)) of the same compound?
The EC50 was 110 nM.

What about the “Cell IC50, JAK1/2 hPBMC IFNγ/pSTAT1” value (JAK1/2) of the same compound?
The value was “Inactive”.

What about the “Deaths, serious AEs, discontinuations due to AEs” value ([2]; MAD) of the same compound?
Its value is “no deaths, serious AEs, or discontinuations due to AEs”.

And the “Safety and tolerability conclusion” value ([2]; MAD)?
Its value is “safe and well tolerated”.

What about the “Notable events: single episode of transient diarrhea” value ([2]; MAD 5 mg BID) of the same compound?
The value was 2 subjects.

What about the “Notable events: single dermatomal zoster rash 1 week after dosing ended” value ([2]; MAD 40 mg BID) of the same compound?
The value was 1 subject.

What about the “AE of Special Interest (events)” value ([2]; MAD cohort 5 mg BID) of the same compound?
Its value is 3.

And the “AEs (events)” value ([2]; MAD cohort 5 mg BID)?
Its value is 9.

What about the “≥Grade 2 (events)” value ([2]; MAD cohort 5 mg BID) of the same compound?
The value was 1.

And the “AE of Special Interest (events)” value ([2]; MAD cohort 10 mg TID)?
Its value is 0.

And the “AEs (events)” value ([2]; MAD cohort 10 mg TID)?
The value was 3.

What about the “≥Grade 2 (events)” value ([2]; MAD cohort 10 mg TID) of the same compound?
Its value is 0.

What about the “AE of Special Interest (events)” value ([2]; MAD cohort 15 mg BID) of the same compound?
The value was 0.

And the “AEs (events)” value ([2]; MAD cohort 15 mg BID)?
The value was 0.

What about the “≥Grade 2 (events)” value ([2]; MAD cohort 15 mg BID) of the same compound?
Its value is 0.

And the “AE of Special Interest (events)” value ([2]; MAD cohort 25 mg BID)?
Its value is 1.

And the “AEs (events)” value ([2]; MAD cohort 25 mg BID)?
The value was 4.

What about the “≥Grade 2 (events)” value ([2]; MAD cohort 25 mg BID) of the same compound?
The value was 0.

What about the “AE of Special Interest (events)” value ([2]; MAD cohort 30 mg QD) of the same compound?
Its value is 0.

And the “AEs (events)” value ([2]; MAD cohort 30 mg QD)?
The value was 3.

What about the “≥Grade 2 (events)” value ([2]; MAD cohort 30 mg QD) of the same compound?
Its value is 0.

What about the “AE of Special Interest (events)” value ([2]; MAD cohort 40 mg BID) of the same compound?
The value was 1.

And the “AEs (events)” value ([2]; MAD cohort 40 mg BID)?
Its value is 4.

And the “≥Grade 2 (events)” value ([2]; MAD cohort 40 mg BID)?
Its value is 1.

What about the Safety and tolerability ([2]; MAD, up to 2 weeks administration in HV) of the same compound?
Its Safety and tolerability is “safe and tolerable”.

What about the EC50 (JAK3 (pSTAT5, lymph)) of the same compound?
Its EC50 is 137 nM.

And the EC50 (ITK (IFNγ mRNA))?
The EC50 was 12.7 nM.

And the Nephrotoxicity ([3]; Compound I toxicity studies)?
The Nephrotoxicity was “no evidence of nephrotoxicity”.

What about the Cmax ([3]; in vivo, 80 mg/kg, rat, NOAEL 80 mpk) of the same compound?
Its Cmax is 13800 ng/mL.

What about the AUC(0-t) ([3]; in vivo, 80 mg/kg, rat, NOAEL 80 mpk, read-out: AUC0-24 h at NOAEL) of the same compound?
The AUC(0-t) was 45000 ng·h/mL.

What about the Adverse effects ([3]; rat, 5, 20, 80 mpk, 13 weeks) of the same compound?
Its Adverse effects is “No adverse effects observed”.

And the “No observed adverse effect level” value ([3]; rat, daily dosing 13 weeks)?
Its value is 80 mpk.

What about the “Protection from histological damage vs comparator drugs” value (experimental colitis) of the same compound?
Its value is “more protective than both comparator drugs”.

What about the EC50 (ITK & JAK (IFNγ protein); [6]) of the same compound?
Its EC50 is 7.3 nM.

What about the EC50 (ITK & JAK (IFNγ protein); read-out: SAD EC50) of the same compound?
Its EC50 is 0.0026 µg/mL and 7.3 nM.

What about the “Inhibition of dual ITK and JAK3-stimulated IFNγ protein production” value (ITK & JAK (IFNγ protein)) of the same compound?
Its value is “Near complete inhibition”.

What about the “Inhibition of dual ITK and JAK3-stimulated IFNγ protein production” value (ITK & JAK (IFNγ protein); maintained for 12 hours) of the same compound?
The value was over 50%.

What about the “Modulation of all PD biomarker readouts” value (ITK and JAK3) of the same compound?
Its value is “dose- and time-dependent modulation”.

And the “PD markers of ITK (αCD3/αCD28 induced IL2 and IFNγ mRNA) and JAK3 (IL2 induced pSTAT5) activation” value (ITK and JAK3)?
The value was “dose-dependently inhibited”.

And the “Inhibition of biomarker readouts” value (ITK and JAK3; 2 hours post treatment, doses of 15 mg to 80 mg)?
The value was “Near-complete inhibition”.

What about the “Potency relative to Ritlecitinib, IL-15/IFNγ (5 hr)” value [4] of the same compound?
Its value is “(6.5 fold*)”.

What about the IC50 ([4]; Homo sapiens) of the same compound?
Its IC50 is 0.0029 µg/mL and 8 nM.

What about the EC50 ([4]; Homo sapiens, 5 h, read-out: Human Whole Blood EC50, IL-15/IFNγ (5 hr)) of the same compound?
The EC50 was 8 nM.

And the EC50 [5]?
Its EC50 is 0.0022 µg/mL and 6.1 nM.
